Assay results reported in patent publication US20240197767A1, “COMBINATION OF ZIDOVUDINE WITH A TETRACYCLINE ANTIBIOTIC” (Helperby Therapeutics Limited, priority 2019, published 2024).

How the values were obtained:
Experiment in all cases: Chequerboard MIC/synergy testing of zidovudine and doxycycline, log phase bacteria
Assay type in all cases: cell-based
[1] = system: BAA2470 NDM-1 Klebsiella pneumoniae; settings: strain BAA2470, doxycycline alone
Method: (§1) Synergy in the context of antimicrobial drugs is measured in a number of ways that conform to the generally accepted opinion that “synergy is an effect greater than additive”. One of the ways to assess whether synergy has been observed is to use the “chequerboard” technique. This is a well-accepted method that leads to the generation of a value called the fractional inhibitory concentration index (FICI). Orhan et al., J. Clin. Microbiol. 2005, 43(1):140 describes the chequerboard method and analysis in the paragraph bridging pages 140-141, and explains that the FICI value is a ratio of the sum of the MIC (Minimum Inhibitory Concentration) level of each individual component alone and in the mixture. The combination is considered synergistic when the ΣFIC is ≤0.5, indifferent when the ΣFIC is >0.5 but <4.0, and antagonistic when the ΣFIC is >4.0.
(§2) The chequerboard method used in Example 1 followed the protocols detailed in Antimicrob Chemo (2013) 68, 374-384. Zidovudine and doxycycline were obtained from commercially available sources. The bacteria used were BAA2469 NDM-1 Escherichia coli, BAA2470 NDM-1 Klebsiella pneumoniae, BAA2471 NDM-1 Escherichia coli, BAA2472 NDM-1 Klebsiella pneumoniae, and NCTC13443 NDM-1 Klebsiella pneumoniae. All strains were obtained from a commercial source and log phase growth of the bacteria was carried out using methods known in the art.
(§3) The effects of the combination of the present invention were examined by calculating the fractional inhibitory concentration index (FICI) of each combination, as follows:
(§4) (MIC of drug A,tested in combination)/(MIC of drug A,tested alone)+(MIC of drug B,tested in combination)/(MIC of drug B,tested alone).
(§5) The interaction of the combination was defined as showing synergy if the FICI was […], no interaction if the FICI was >0.5 but <4.0 and antagonism if the FICI was >4.0.

[2] = system: BAA2472 NDM-1 Klebsiella pneumoniae; settings: BAA2472, read-out: MIC Doxycycline
Method: as §1, §2, §3, §4, §5

[3] = system: BAA2469 NDM-1 Escherichia coli; settings: strain BAA2469, doxycycline alone
Method: as §1, §2, §3, §4, §5

[4] = system: BAA2471 NDM-1 Escherichia coli; settings: BAA2471, read-out: MIC Doxycycline
Method: as §1, §2, §3, §4, §5

[5] = system: NCTC13443 NDM-1 Klebsiella pneumoniae; settings: strain NCTC13443, doxycycline alone
Method: as §1, §2, §3, §4, §5

For `C[C@H]1c2cccc(O)c2C(=O)C2=C(O)[C@]3(O)C(=O)C(C(N)=O)=C(O)[C@@H](N(C)C)[C@@H]3[C@@H](O)[C@@H]21` [Doxycycline, (4S,4aR,5S,5aR,6R,12aR)-4-(dimethylamino)-1,5,10,11,12a-pentahydroxy-6-methyl-3,12-dioxo-4a,5,5a,6-tetrahydro-4H-tetracene-2-carboxamide], the MIC [1] was 64 µg/mL, the MIC [2] was 16 µg/mL and the MIC [3] was 64 µg/mL. It also gave an MIC [4] of 32 µg/mL and an MIC [5] of 32 µg/mL.
